Test results: ChEMBL document CHEMBL6153050, “Repurposing FDA-approved drugs to target G-quadruplexes in breast cancer” (Eur J Med Chem, 2025)
Active and inactive are the calls of the source. No cut-off for these calls is given here.

How the values were obtained:
Quadruplex RNA [1] = conditions: time 10.0 min
Quadruplex DNA [2] = conditions: time 10.0 min
Quadruplex DNA [3] = conditions: time 10.0 min; remark: listed apart in the source
Quadruplex DNA [4] = conditions: time 10.0 min; remark: listed apart in the source
Quadruplex RNA [5] = conditions: time 10.0 min; remark: listed apart in the source
Quadruplex DNA [6] = conditions: time 10.0 min; remark: listed apart in the source
MDA-MB-231 [7] = assay: Effect on cell cycle arrest in human MDA-MB-231 cells at IC25 concentration incubated for 6 days by PI staining based flow cytometric analysis; type: functional; conditions: time 6.0 day
MCF7 [8] = assay: Cytotoxicity against human MCF7 cells assessed as reduction in cell viability incubated for 6 days by SRB assay; type: functional, cell-based; conditions: for IC25: time 6 day
MCF7 [9] = assay: Induction of DNA damage in human MCF7 cells assessed as increase in gamma-H2AX level at IC50 concentration incubated for 6 days by flow cytometric analysis; type: functional, cell-based; conditions: time 6.0 day
MDA-MB-231 [10] = assay: Cytotoxicity against human MDA-MB-231 cells assessed as reduction in cell viability at 20 uM incubated for 6 days by SRB assay; type: functional, cell-based; conditions: time 6.0 day
Quadruplex DNA [11] = assay: Stabilization of G4 quadruplex DNA (unknown origin) in human MCF7 cells at IC50 concentration incubated for 6 days by flow cytometric analysis; type: cell-based; conditions: time 6.0 day
SK-BR-3 [12] = assay: Cytotoxicity against human SK-BR-3 cells assessed as reduction in cell viability at 20 uM incubated for 6 days by SRB assay; type: functional, cell-based; conditions: time 6.0 day
MDA-MB-231 [13] = assay: Induction of DNA damage in human MDA-MB-231 cells assessed as increase in gamma-H2AX level at IC50 concentration incubated for 6 days by flow cytometric analysis; type: functional, cell-based; conditions: time 6.0 day
MDA-MB-231 [14] = assay: Cytotoxicity against human MDA-MB-231 cells assessed as reduction in cell viability incubated for 6 days by SRB assay; type: functional, cell-based; conditions: for IC25: time 6 day
Quadruplex DNA [15] = assay: Stabilization of G4 quadruplex DNA (unknown origin) in human MDA-MB-231 cells assessed as increase in G4 motif at IC50 concentration incubated for 6 days by flow cytometric analysis; type: cell-based; conditions: time 6.0 day
MCF7 [16] = assay: Effect on cell cycle arrest in human MCF7 cells at IC50 concentration incubated for 6 days by PI staining based flow cytometric analysis; type: functional; conditions: time 6.0 day
MDA-MB-231 [17] = assay: Effect on cell cycle arrest in human MDA-MB-231 cells at IC50 concentration incubated for 6 days by PI staining based flow cytometric analysis; type: functional; conditions: time 6.0 day
MCF7 [18] = assay: Effect on cell cycle arrest in human MCF7 cells at IC25 concentration incubated for 6 days by PI staining based flow cytometric analysis; type: functional; conditions: time 6.0 day
SK-BR-3 [19] = assay: Cytotoxicity against human SK-BR-3 cells assessed as reduction in cell viability incubated for 6 days by SRB assay; type: functional, cell-based
SK-BR-3 [20] = assay: Induction of cell cycle arrest in human SK-BR-3 cells assessed as accumulation of cells at G2/M phase at IC25 concentration incubated for 6 days by PI staining based flow cytometric analysis; type: functional; conditions: time 6.0 day
MCF7 [21] = assay: Downregulation of c-MYC protein expression in human MCF7 cells at IC25 concentration incubated for 6 days by Western blotting analysis; type: functional, cell-based; conditions: time 6.0 day
Quadruplex DNA [22] = assay: Stabilization of G4 quadruplex DNA (unknown origin) in human MCF7 cells at IC25 concentration incubated for 6 days by flow cytometric analysis; type: cell-based; conditions: time 6.0 day
Quadruplex DNA [23] = assay: Binding affinity to c-Myc G4 quadruplex DNA (TGAGGGTGGGTAGGGTGGGTAA) (unknown origin) assessed as equilibrium binding constant (Ka) by ITC analysis; type: nucleic-acid assay
Quadruplex DNA [24] = assay: Binding affinity to HER2 G4 quadruplex DNA (GGAGAAGGAGGAGGTGGAGGAGGAGGG) (unknown origin) assessed as change in entropy by ITC analysis; type: nucleic-acid assay
Quadruplex DNA [25] = assay: Binding affinity to HER2 G4 quadruplex DNA (GGAGAAGGAGGAGGTGGAGGAGGAGGG) (unknown origin) assessed as equilibrium binding constant (Ka) by ITC analysis; type: nucleic-acid assay
SK-BR-3 [26] = assay: Induction of DNA damage in human SK-BR-3 cells assessed as increase in gamma-H2AX level at IC50 concentration incubated for 6 days by flow cytometric analysis; type: functional, cell-based; conditions: time 6.0 day
SK-BR-3 [27] = assay: Induction of cell cycle arrest in human SK-BR-3 cells assessed as accumulation of cells at G2/M phase at IC50 concentration incubated for 6 days by PI staining based flow cytometric analysis; type: functional; conditions: time 6.0 day
Quadruplex DNA [28] = assay: Binding affinity to c-Myc G4 quadruplex DNA (TGAGGGTGGGTAGGGTGGGTAA) (unknown origin) assessed as change in entropy by ITC analysis; type: nucleic-acid assay
Quadruplex DNA [29] = assay: Binding affinity to HER2 G4 quadruplex DNA (GGAGAAGGAGGAGGTGGAGGAGGAGGG) (unknown origin) assessed as binding enthalpy by ITC analysis; type: nucleic-acid assay
Quadruplex DNA [30] = assay: Stabilization of G4 quadruplex DNA (unknown origin) in human SK-BR-3 cells assessed as increase in G4 motif at IC50 concentration incubated for 6 days by flow cytometric analysis; type: cell-based; conditions: time 6.0 day
MCF7 [31] = assay: Induction of DNA damage in human MCF7 cells assessed as increase in gamma-H2AX level at IC25 concentration incubated for 6 days by flow cytometric analysis; type: functional, cell-based; conditions: time 6.0 day
MDA-MB-231 [32] = assay: Induction of cell cycle arrest in human MDA-MB-231 cells assessed as reduction in G1 phase at IC25 concentration incubated for 6 days by PI staining based flow cytometric analysis; type: functional; conditions: time 6.0 day
Quadruplex DNA [33] = assay: Binding affinity to c-Myc G4 quadruplex DNA (TGAGGGTGGGTAGGGTGGGTAA) (unknown origin) assessed as Gibbs free energy by ITC analysis; type: nucleic-acid assay
Quadruplex DNA [34] = assay: Binding affinity to HER2 G4 quadruplex DNA (GGAGAAGGAGGAGGTGGAGGAGGAGGG) (unknown origin) assessed as Gibbs free energy by ITC analysis; type: nucleic-acid assay
Quadruplex DNA [35] = assay: Binding affinity to c-Myc G4 quadruplex DNA (TGAGGGTGGGTAGGGTGGGTAA) (unknown origin) assessed as binding enthalpy by ITC analysis; type: nucleic-acid assay
SK-BR-3 [36] = assay: Induction of DNA damage in human SK-BR-3 cells assessed as increase in gamma-H2AX level at IC25 concentration incubated for 6 days by flow cytometric analysis; type: functional, cell-based; conditions: time 6.0 day
Quadruplex DNA [37] = assay: Stabilization of G4 quadruplex DNA (unknown origin) in human MDA-MB-231 cells at IC50 concentration incubated for 6 days by flow cytometric analysis; type: cell-based; conditions: time 6.0 day
Quadruplex DNA [38] = assay: Stabilization of G4 quadruplex DNA (unknown origin) in human MDA-MB-231 cells at IC25 concentration incubated for 6 days by flow cytometric analysis; type: cell-based; conditions: time 6.0 day
MDA-MB-231 [39] = assay: Induction of DNA damage in human MDA-MB-231 cells assessed as increase in gamma-H2AX level at IC25 concentration incubated for 6 days by flow cytometric analysis; type: functional, cell-based; conditions: time 6.0 day
[40] = Homo sapiens, MCF7, 144 h, read-out: IC25
[41] = Homo sapiens, MDA-MB-231, 144 h
[42] = Homo sapiens, MDA-MB-231, 144 h, read-out: IC25

| Compound | deltaTm1/2 (Quadruplex RNA [1]) [°C] | deltaTm1/2 (Quadruplex DNA [2]) [°C] | deltaTm1/2 (Quadruplex DNA [3]) [°C] | deltaTm1/2 (Quadruplex DNA [4]) [°C] | deltaTm1/2 (Quadruplex RNA [5]) [°C] | deltaTm1/2 (Quadruplex DNA [6]) [°C] | Activity (MDA-MB-231 [7]) | IC50 (MCF7 [8]; Homo sapiens, MCF7, 144 h) [µM] | IC25 (MCF7 [8]; [40]) [µM] | Activity (MCF7 [9]) | Activity (Quadruplex DNA [11]) | Activity (MDA-MB-231 [13]) | IC50 (MDA-MB-231 [14]; [41]) [µM] | IC25 (MDA-MB-231 [14]; [42]) [µM] | Activity (MCF7 [16]) | Activity (MDA-MB-231 [17]) | Activity (MCF7 [18]) | Activity (Quadruplex DNA [22]) | Activity (MCF7 [31]) | other results |
| --- | --- | --- | --- | --- | --- | --- | --- | --- | --- | --- | --- | --- | --- | --- | --- | --- | --- | --- | --- | --- |
| N[C@@H]1CCCCN(c2c(F)cc3c(=O)c(C(=O)O)cn(C4CC4)c3c2Cl)C1 | 2.8 | 1.7 | -0.3 | 4.9 | 1.7 | 1.3 |  |  |  |  |  |  |  |  |  |  |  |  |  |  |
| CN1CCCC(n2nc(Cc3ccc(Cl)cc3)c3ccccc3c2=O)CC1 (stereo unspecified) [AZELASTINE] | 9.6 | 5.3 | 8.1 | 17.1 | 2.3 | 7.7 | inactive | 10.3 | 5.8 | Active | Active | inactive | 8.2 | 5.2 | inactive | inactive | inactive |  |  | Activity (MDA-MB-231 [10]): Active; Activity (SK-BR-3 [12]): Active; Activity (Quadruplex DNA [15]): Active |
| CC[C@@]1(O)C(=O)OCc2c1cc1n(c2=O)Cc2c-1nc1ccccc1c2CCNC(C)C [BELOTECAN] | 14.7 | 7.5 | 12.7 | 16.2 | 6.6 | 15.9 |  | 0.0012 |  | Active; Slightly Lower Dna Damage Observed |  |  | 0.0024 |  |  |  |  | Active | Active; Slightly Lower Dna Damage Observed | IC50 (SK-BR-3 [19]; Homo sapiens, SK-BR-3, 144 h): 0.002 µM; IC25 (SK-BR-3 [19]; time 6 day): 0.9 10^-3microM; Activity (SK-BR-3 [20]): Active; IC25 (MCF7 [8]): 0.5 10^-3microM; Activity (MCF7 [21]): Active; Ka (Quadruplex DNA [23]): 2.3 10^5/M; TdeltaS (Quadruplex DNA [24]): 0.621 kcal/mol; Ka (Quadruplex DNA [25]): 2.3 10^5/M; Activity (SK-BR-3 [26]): Active; Slightly Lower Dna Damage Observed; Activity (SK-BR-3 [27]): Active; TdeltaS (Quadruplex DNA [28]): 1.79 kcal/mol; deltaH (Quadruplex DNA [29]): -6.69 kcal/mol; Activity (Quadruplex DNA [30]): Active; Activity (MDA-MB-231 [32]): Active; IC25 (MDA-MB-231 [14]): 1.4 10^-3microM; deltaG (Quadruplex DNA [33]): -7.29 kcal/mol; deltaG (Quadruplex DNA [34]): -7.31 kcal/mol; deltaH (Quadruplex DNA [35]): -5.5 kcal/mol; Activity (SK-BR-3 [36]): Active; Slightly Lower Dna Damage Observed |

Now from value to compound, other results behind:

| deltaTm1/2 (Quadruplex RNA [1]) [°C] | deltaTm1/2 (Quadruplex DNA [2]) [°C] | deltaTm1/2 (Quadruplex DNA [3]) [°C] | deltaTm1/2 (Quadruplex DNA [4]) [°C] | deltaTm1/2 (Quadruplex RNA [5]) [°C] | deltaTm1/2 (Quadruplex DNA [6]) [°C] | Compound | Activity (MDA-MB-231 [7]) | IC50 (MCF7 [8]; Homo sapiens, MCF7, 144 h) [µM] | IC25 (MCF7 [8]; [40]) [µM] | Activity (MCF7 [9]) | Activity (Quadruplex DNA [11]) | Activity (MDA-MB-231 [13]) | IC50 (MDA-MB-231 [14]; [41]) [µM] | IC25 (MDA-MB-231 [14]; [42]) [µM] | Activity (MCF7 [16]) | Activity (MDA-MB-231 [17]) | Activity (MCF7 [18]) | Activity (Quadruplex DNA [22]) | Activity (MCF7 [31]) | other results |
| --- | --- | --- | --- | --- | --- | --- | --- | --- | --- | --- | --- | --- | --- | --- | --- | --- | --- | --- | --- | --- |
| 4.9 | 5.8 | 4 | 6.2 | 0.6 | 1.5 | CCc1cc2c(cc1CC)CC(NC[C@H](O)c1ccc(O)c3[nH]c(=O)ccc13)C2 [INDACATEROL] |  | 7.4 | 4.3 |  |  |  |  |  |  |  |  |  |  |  |
| 6.3 | 3.2 | 7.8 | 11 | 1.6 | 4 | O=C(c1ccc(OCCN2CCCCC2)cc1)c1c(-c2ccc(O)cc2)sc2cc(O)ccc12 [RALOXIFENE] | inactive | 2.7 | 0.63 | inactive | inactive | inactive | 10.3 | 8.2 | inactive | inactive | inactive | inactive | inactive | Activity (Quadruplex DNA [37]): inactive; Activity (Quadruplex DNA [38]): inactive; Activity (MDA-MB-231 [39]): inactive |
